Values joined by “and” are separate entries in the source; they are usually repeats but may differ in a detail not shown here. Equal entries are not always repeated. Where two headings read alike, the source gives them in different places.
How the values were obtained:
[1] = Brain/plasma ratio, brain and hypothalamus penetrance; assay type: in vivo; settings: in words
[2] = test system: DIO mice; experiment: Acute leptin co-treatment in DIO mice (body weight, food intake 15 h); assay type: in vivo; settings: for body weight, inhibitor alone: 3 days pretreatment i.p., ACY775 10, ricolinostat 25 mg/kg; for food intake, inhibitor alone: ACY775 10, ricolinostat 25 mg/kg i.p.; for body weight 15 h after leptin in inhibitor-pretreated mice / food intake 15 h after leptin in inhibitor-pretreated mice: leptin 1 mg/kg i.p., ACY775 10, ACY738 50, ricolinostat 25 mg/kg/day i.p.
Protocol: DIO mice were pretreated with ACY775 (10 mg/kg/day, i.p.) or vehicle for 3 days, which was followed by co-treatment with ACY775 (or vehicle) and leptin (1 mg/kg, i.p.) (or saline) (n=9 for each group), % change in body weight 15 h after leptin treatment, food intake (g) during the 15 h period after leptin treatment. The results in were reproduced in two independent experiments.
Diet induced obese (DIO) mice were pretreated with ACY775 (10 mg/kg/day, i.p.) or vehicle for 3 days, which was followed by co-treatment with ACY775 (or vehicle) and leptin (1 mg/kg, i.p.) (or saline) (n=9 for each group). Mice were evaluated for % change in body weight 15 h after leptin treatment, and food intake (g) during the 15 h period after leptin treatment.
DIO mice were pretreated with ricolinostat (25 mg/kg/day, i.p.) or vehicle for 3 days, which was followed by co-treatment with ricolinostat (or vehicle) and leptin (1 mg/kg, i.p.) (or saline) (n=32 for each group). Change in body weight 15 h after leptin treatment, and food intake (g) during the 15 h period after leptin treatment were determined. The results were reproduced in two independent experiments.

[3] = cited from earlier work; for brain/plasma ratio: in vivo
[4] = test system: DIO mice; experiment: Single dose food intake in 24 h-fasted DIO mice; assay type: in vivo; settings: ACY775 10, ACY738 50 mg/kg i.p.
Protocol: Food intake was analyzed hourly until 3:00 am. […] DEXA scans were performed in two different cohorts.

[5] = test system: DIO mice; experiment: Conditioned place preference (CPP) assay in DIO mice; assay type: in vivo; settings: fed and fasting conditions, vs vehicle
Protocol: DIO mice were treated with vehicle or ACY775 (10 mg/kg, i.p., once a day) for 3 days. On the fourth day, 1 h after the beginning of the light cycle, the mice were administered vehicle or ACY775 (10 mg/kg, i.p.) and the conditioned place preference (CPP) assay under the ad libitum feeding condition was utilized. The CPP assay was performed 6 h later under the ad libitum feeding condition (n=10 mice for both the Vehicle- and ACY775-treated groups). CPP assay under a 20-h fasting condition was also performed. DIG mice were treated with vehicle or ACY775 (10 mg/kg, i.p.) once a day and fasted for 15 h after the third injection. On the fourth day, 1 h after the beginning of the light cycle, the mice were administered vehicle or ACY775 (10 mg/kg body weight, i.p.) and the CPP assay was performed 5 h after this injection under the fasting condition (n=10 mice for both the Vehicle- and ACY775-treated groups).
Measurements were made of the total distance that the mice traveled during the CPP test, the average velocity of movement during the assay, the total time the mice spent in the dark chamber during the test; the frequency with which the mice traveled to the dark chamber during the test; the total time the mice spent in the food-paired white chamber; the frequency with which the mice traveled to the food paired white chamber; the total time the mice spent in the food-containing zone within the food-paired side chamber; and the frequency with which the mice traveled to the food-containing zone within the food-paired side chamber during the test.

[6] = test system: DIO mice; experiment: Metabolic cages (CLAMS) in DIO mice; assay type: in vivo; settings: for energy expenditure: 3 days, ACY775 10, ACY738 50 mg/kg i.p.
Protocol: Diet induced obese (DIO) mice were placed into metabolic cages and received ACY775 (10 mg/kg, i.p., n=7) or vehicle (n=8) once a day for 3 days. Energy expenditure, respiratory exchange ratios (RER; VCO2/VO2), ambulatory count (physical activity) from each group of mice were determined. Bar graphs represent average of two dark (8-20 and 32-44 hr) and two light cycles ([…]).
Comprehensive Lab Animal Monitoring System (CLAMS) was used to measure metabolic parameters such as energy expenditure (EE) and respiratory exchange ratio (RER) and physical activity levels in Vehicle- and ACY775-treated mice.

[7] = test system: WT lean mice; experiment: 3-week treatment of WT lean mice; assay type: in vivo; settings: for lean mass, total fat mass, fat percentage / body weight: 3 weeks; for body weight: ACY775 10, ACY738 50 mg/kg i.p.; for liver morphology: end of treatment
Protocol: Daily food intake (g) during 3 weeks of treatment. Serum leptin (ng/ml) levels were measured after 3 weeks of treatment. Lean mass (g); fat mass (g) and fat percentage (%) after 3 weeks of treatment were measured by DEXA scan. GTT was measured after 1 week of treatment. AOC analysis for GTT was performed. Blood glucose (mg/dl) level was measured after 1 week of treatment. ITT was measured after 2 weeks of treatment. Serum insulin (ng/ml) levels were measured after 3 weeks of treatment.

[8] = test system: db/db mice; experiment: 3-week treatment of db/db mice; assay type: in vivo; settings: for glucose tolerance (GTT): 1 week; for ITT: 2 weeks; for body weight heavier than initial body weight: end of 3 weeks, ACY775 10, ACY738 50 mg/kg i.p.
Protocol: Daily food intake (g), Serum leptin (ng/ml), lean mass (g), fat mass (g) and fat percentage (%) were measured after 3 weeks of treatment measured by DEXA scan. GTT was determined after 1 week of treatment. AOC analysis for GTT was performed and Blood glucose (mg/dl) levels were measured after 1 week of treatment. Blood glucose (mg/dl) levels and Serum insulin (ng/ml) levels were measured after 3 weeks of treatment. ITT was assessed after 2 weeks of treatment. H&E staining of the liver sections was conducted after 3 weeks of treatment.

[9] = test system: HDAC6 KO mice; experiment: 3-week treatment of DIO WT versus HDAC6 KO mice; assay type: in vivo; settings: for body weight, HDAC6 KO vs WT DIO mice: 3 weeks i.p., ACY775 10, ACY738 50, Tubastatin A 25 mg/kg/day; for fat mass and fat %, HDAC6 KO vs WT / lean mass, HDAC6 KO vs WT: DEXA; for blood glucose, serum insulin and leptin levels, HDAC6 KO vs WT / food intake, HDAC6 KO vs WT DIO mice / glucose tolerance and insulin sensitivity (GTT, ITT), HDAC6 KO vs WT: mouse, in vivo

| Compound | body weight, inhibitor alone [2] | food intake, inhibitor alone [2] | body weight 15 h after leptin in inhibitor-pretreated mice [2] | food intake 15 h after leptin in inhibitor-pretreated mice [2] | brain/plasma ratio [3] | food intake after a single dose [4] | CPP: cumulative duration in dark side chambers [5] | CPP: time and frequency in food-containing white side chambers [5] | CPP: time and frequency in the food zone [5] | energy expenditure [6] | daily food intake [7] | insulin sensitivity (ITT) and circulating insulin levels [7] | lean mass, total fat mass, fat percentage [7] | body weight [7] | liver morphology [7] | hepatic steatosis [8] | plasma insulin levels [8] | glucose tolerance (GTT) [8] | ITT [8] | body weight heavier than initial body weight [8] | further results |
| --- | --- | --- | --- | --- | --- | --- | --- | --- | --- | --- | --- | --- | --- | --- | --- | --- | --- | --- | --- | --- | --- |
| O=C(CCCCCCNC(=O)c1cnc(N(c2ccccc2)c2ccccc2)nc1)NO [Ricolinostat] | did not decrease the bodyweight | no effect on the food intake | did not reduce the body weight | no effect on the food intake | 0.01 and < 0.01 |  |  |  |  |  |  |  |  |  |  |  |  |  |  |  | penetrance into the hypothalamus [1]: neither of which have high penetrance into the hypothalamus; brain/plasma ratio ([3]; listed as ricolinostat): 0.01; brain penetrance / BBB permeability ([3]; in words): poor BBB permeability |
| O=C(NO)c1cnc(NC2(c3cccc(F)c3)CCCCC2)nc1 [ACY775, 2-[[1-(3-fluorophenyl)cyclohexyl]amino]-N-hydroxy-5-pyrimidinecarboxamide] | significantly decreased the bodyweight | reduced the food intake | further reduction in bodyweight | further augmented the negative effect of leptin on food intake | 1.26 | significantly reduced/blocked the food intake | no significant differences in cumulative duration | significantly shorter time and had lower frequency of appearance in the food-containing white side chambers | significantly shorter time and displayed lower frequency of appearance in the food zone | higher in the both dark and light cycle | similar | no significant difference in insulin sensitivity and circulating insulin levels | did not detect any alterations | neither ACY775 nor ACY738 affected the body weight | similar | did not improve hepatic steatosis | did not show any significant alterations | no difference in glucose tolerance | no significant difference in blood glucose levels | 3.82%±0.99% | CPP: appearance frequency in dark side chambers [5]: similar; respiratory exchange ratio (RER) ([6]; dark and light cycles): significantly decreased; fasting blood glucose after the first week [8]: lower in ACY775-treated mice than vehicle-treated mice; food intake [8]: transitionally reduced by ACY775 treatment during the first 2 days; blood glucose lowering at the end of treatment period ([8]; 3 weeks): completely diminished; body weight, HDAC6 KO vs WT DIO mice [9]: highly significant decrease in the bodyweight of the WT DIO mice when compared to HDAC6 KO DIG mice; fat mass and fat %, HDAC6 KO vs WT [9]: significantly lower in the wt group; lean mass, HDAC6 KO vs WT [9]: not different; blood glucose, serum insulin and leptin levels, HDAC6 KO vs WT [9]: significantly higher in the ACY775-treated HDAC6 KO group; food intake, HDAC6 KO vs WT DIO mice [9]: blocked in the HDAC6 KO mice; glucose tolerance and insulin sensitivity (GTT, ITT), HDAC6 KO vs WT [9]: could not increase glucose tolerance and insulin sensitivity in the HDAC6 KO mice |
| O=C(NO)c1cnc(NC2(c3ccccc3)CC2)nc1 [ACY738] |  |  | significantly augmented the acute leptin-induced reduction in body weight and food intake | significantly augmented the acute leptin-induced reduction in body weight and food intake |  | significantly reduced/blocked the food intake | no significant differences in cumulative duration | spent similar time and frequency of appearance | significantly shorter time and displayed lower frequency of appearance in the food zone | higher energy expenditure in light cycle, though without significant difference in dark cycle | similar | no significant difference in insulin sensitivity and circulating insulin levels | did not detect any alterations | neither ACY775 nor ACY738 affected the body weight | similar | did not improve hepatic steatosis | did not show any significant alterations | no difference in glucose tolerance | no significant difference in blood glucose levels | 2.53%±0.97% | body weight, HDAC6 KO vs WT DIO mice [9]: slight decrease in the HDAC6KO mice; fat mass and fat %, HDAC6 KO vs WT [9]: significantly lower in the wt group; lean mass, HDAC6 KO vs WT [9]: not different; reduction of bodyweight of the wt mice ([9]; DIO wt mice, ACY738 50 mg/kg i.p.): around 20%; blood glucose, serum insulin and leptin levels, HDAC6 KO vs WT [9]: significantly higher in the ACY738-treated HDAC6 KO group; food intake, HDAC6 KO vs WT DIO mice [9]: significantly higher in the HDAC6 KO group; glucose tolerance and insulin sensitivity (GTT, ITT), HDAC6 KO vs WT [9]: did not improve glucose tolerance and increase insulin sensitivity in the HDAC6 KO mice |
